Measured values published in patent US20070010671A1, “Novel quinazoline derivatives and methods of treatment related to the use thereof” (priority 2003, published 2007).

Each compound was assayed against MCH receptor (Homo sapiens, UniProt Q99705) (assay: High throughput functional screening FLIPR/FDSS6000: inhibition of MCH-evoked intracellular Ca2+ changes). Conditions: class by percent of control at 10^-7 M or IC50.
Format: cell-based
Summary of the method: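 Fluo4 fluorescence (Ex 488 nm, Em 530 nm) tracked MCH-evoked [Ca2+]i transients over 290 s by FLIPR or FDSS. Cells carried a constitutively active, non-endogenous receptor version. Compounds were added 3 min before a 50 nM MCH challenge.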

Compound	class
CN(C)c1nc(N[C@H]2CC[C@@H](NC(=S)NCC3CCCCC3)CC2)nc2ccccc12 [compound 286, N-(cyclohexylmethyl)-N′-(cis-4-{[4-(dimethylamino)quinazolin-2-yl]amino}cyclohexyl)thiourea]	2 (Class 2: The value of percent of control at 10^−7 M was from 40% to 60% or the value of IC50 was from 50 nM to 200 nM.)
CN(C)c1nc(N[C@H]2CC[C@@H](CNC(=O)NCc3ccc(Br)cc3)CC2)nc2ccccc12 [compound 544]	3 (Class 3: The value of percent of control at 10^−7 M was more than 60% or the value of IC50 was more than 200 nM.)
Cc1cc(C)c(NC(=S)N[C@H]2CC[C@@H](Nc3nc(N(C)C)c4ccccc4n3)CC2)c(C)c1 [compound 248, N-(cis-4-{[4-(dimethylamino)quinazolin-2-yl]amino}cyclohexyl)-N′-mesitylthiourea]	1 (Class 1: The value of percent of control at 10^−7 M was less than 40% or the value of IC50 was less than 50 nM.)
CN(C)c1nc(N[C@H]2CC[C@@H](CNC(=O)Nc3ccc(Cl)cc3[N+](=O)[O-])CC2)nc2ccccc12 [compound 547]	3 (Class 3: The value of percent of control at 10^−7 M was more than 60% or the value of IC50 was more than 200 nM.)
CN(C)c1nc(N[C@H]2CC[C@@H](CNC(=O)Nc3cccc4ccccc34)CC2)nc2ccccc12 [compound 450, N-[(cis-4-{[4-(dimethylamino)quinazolin-2-yl]amino}cyclohexyl)methyl]-N′-1-naphthylurea]	2 (Class 2: The value of percent of control at 10^−7 M was from 40% to 60% or the value of IC50 was from 50 nM to 200 nM.)
COc1ccc(NC(=O)NC[C@H]2CC[C@@H](Nc3nc(N(C)C)c4ccccc4n3)CC2)cc1 [compound 444, N-[(cis-4-{[4-(dimethylamino)quinazolin-2-yl]amino}cyclohexyl)methyl]-N′-(4-methoxyphenyl)urea]	2 (Class 2: The value of percent of control at 10^−7 M was from 40% to 60% or the value of IC50 was from 50 nM to 200 nM.)
CCOC(=O)c1cccc(NC(=S)N[C@H]2CC[C@@H](Nc3nc(N(C)C)c4ccccc4n3)CC2)c1 [compound 306]	1 (Class 1: The value of percent of control at 10^−7 M was less than 40% or the value of IC50 was less than 50 nM.)
CC(=O)c1cccc(NC(=S)NC[C@H]2CC[C@@H](Nc3nc(N(C)C)c4ccccc4n3)CC2)c1 [compound 577]	3 (Class 3: The value of percent of control at 10^−7 M was more than 60% or the value of IC50 was more than 200 nM.)
CN(C)c1nc(N[C@H]2CC[C@@H](CNC(=S)Nc3cccc(C(=O)O)c3)CC2)nc2ccccc12 [compound 686]	3 (Class 3: The value of percent of control at 10^−7 M was more than 60% or the value of IC50 was more than 200 nM.)
CN(C)c1nc(N[C@H]2CC[C@@H](CNC(=O)Nc3ccccc3-c3ccccc3)CC2)nc2ccccc12 [compound 412, N-biphenyl-2-yl-N′-[(cis-4-{[4-(dimethylamino)quinazolin-2-yl]amino}cyclohexyl)methyl]urea]	2 (Class 2: The value of percent of control at 10^−7 M was from 40% to 60% or the value of IC50 was from 50 nM to 200 nM.)
CN(C)c1nc(N[C@H]2CC[C@@H](CNC(=O)Nc3ccc(F)cc3F)CC2)nc2ccccc12 [compound 422, N-(2,4-difluorophenyl)-N′-[(cis-4-{[4-(dimethylamino)quinazolin-2-yl]amino}cyclohexyl)methyl]urea]	1 (Class 1: The value of percent of control at 10^−7 M was less than 40% or the value of IC50 was less than 50 nM.)
CN(C)c1nc(N[C@H]2CC[C@@H](CNC(=O)NC3CCCC3)CC2)nc2ccccc12 [compound 572, N-cyclopentyl-N′-[(cis-4-{[4-(dimethylamino)quinazolin-2-yl]amino}cyclohexyl)methyl]urea]	2 (Class 2: The value of percent of control at 10^−7 M was from 40% to 60% or the value of IC50 was from 50 nM to 200 nM.)
COc1ccc(NC(=O)NC[C@H]2CC[C@@H](Nc3nc(N(C)C)c4ccccc4n3)CC2)c(C)c1 [compound 556]	2 (Class 2: The value of percent of control at 10^−7 M was from 40% to 60% or the value of IC50 was from 50 nM to 200 nM.)
CCOC(=O)c1ccc(NC(=S)NC[C@H]2CC[C@@H](Nc3nc(N(C)C)c4ccccc4n3)CC2)cc1 [compound 696]	3 (Class 3: The value of percent of control at 10^−7 M was more than 60% or the value of IC50 was more than 200 nM.)
CN(C)c1nc(N[C@H]2CC[C@@H](NC(=S)Nc3cc(Cl)cc(Cl)c3)CC2)nc2ccccc12 [compound 223]	3 (Class 3: The value of percent of control at 10^−7 M was more than 60% or the value of IC50 was more than 200 nM.)
CN(C)c1nc(N[C@H]2CC[C@@H](NC(=S)Nc3ccccc3C(F)(F)F)CC2)nc2ccccc12 [compound 208]	3 (Class 3: The value of percent of control at 10^−7 M was more than 60% or the value of IC50 was more than 200 nM.)
Cc1ccc(Cl)c(NC(=O)NC[C@H]2CC[C@@H](Nc3nc(N(C)C)c4ccccc4n3)CC2)c1 [compound 486]	2 (Class 2: The value of percent of control at 10^−7 M was from 40% to 60% or the value of IC50 was from 50 nM to 200 nM.)
N-[(cis-4-{[4-(dimethylamino)quinazolin-2-yl]amino}cyclohexyl)methyl]-N′-(2-methoxy-4-nitrophenyl)urea [compound 507]	2 (Class 2: The value of percent of control at 10^−7 M was from 40% to 60% or the value of IC50 was from 50 nM to 200 nM.)
CN(C)c1nc(N[C@H]2CC[C@@H](CNC(=S)Nc3cccc(I)c3)CC2)nc2ccccc12 [compound 651]	3 (Class 3: The value of percent of control at 10^−7 M was more than 60% or the value of IC50 was more than 200 nM.)
CN(C)c1nc(N[C@H]2CC[C@@H](NC(=S)Nc3ccc(F)cc3F)CC2)nc2ccccc12 [compound 211]	3 (Class 3: The value of percent of control at 10^−7 M was more than 60% or the value of IC50 was more than 200 nM.)
CN(C)c1nc(N[C@H]2CC[C@@H](CNC(=S)Nc3ccc(Cl)c(Cl)c3)CC2)nc2ccccc12 [compound 594]	3 (Class 3: The value of percent of control at 10^−7 M was more than 60% or the value of IC50 was more than 200 nM.)

Same assay, conditions: class by percent of control at 10^-7 M or by IC50; read-out: class

IC50	Compound
50 to 200 nM	CN(C)c1nc(N[C@H]2CC[C@@H](NC(=O)Nc3ccccc3)CC2)nc2ccccc12 [compound 52, N-(cis-4-{[4-(dimethylamino)quinazolin-2-yl]amino}cyclohexyl)-N′-phenylurea]
< 50 nM	CN(C)c1nc(N[C@H]2CC[C@@H](NC(=O)OCc3ccc([N+](=O)[O-])cc3)CC2)nc2ccccc12 [compound 855]
50 to 200 nM	CN(C)c1nc(N[C@H]2CC[C@@H](NC(=O)Nc3ccccc3Oc3ccccc3)CC2)nc2ccccc12 [compound 115, N-(cis-4-{[4-(dimethylamino)quinazolin-2-yl]amino}cyclohexyl)-N′-(2-phenoxyphenyl)urea]
< 50 nM	CN(C)c1nc(N[C@H]2CC[C@@H](NC(=O)Nc3ccc(Br)cc3C(F)(F)F)CC2)nc2ccccc12 [compound 141, N-[4-bromo-2-(trifluoromethyl)pheny]-N′-(cis-4-{[4-(dimethylamino)quinazolin-2-yl]amino}cyclohexyl)urea]
< 50 nM	CN(C)c1nc(N[C@H]2CC[C@@H](NC(=O)Nc3c(F)cc(Br)cc3F)CC2)nc2ccccc12 [compound 142, N-(4-bromo-2,6-difluorophenyl)-N′-(cis-4-{[4-(dimethylamino)quinazolin-2-yl]amino}cyclohexyl)urea]
50 to 200 nM	COc1cccc(NC(=O)N[C@H]2CC[C@@H](Nc3nc(N(C)C)c4ccccc4n3)CC2)c1 [compound 46, N-(cis-4-{[4-(dimethylamino)quinazolin-2-yl]amino}cyclohexyl)-N′-(3-methoxyphenyl)urea]
< 50 nM	Cc1c(Cl)cccc1NC(=O)N[C@H]1CC[C@@H](Nc2nc(N(C)C)c3ccccc3n2)CC1 [compound 129]
< 50 nM	CCCc1ccccc1NC(=O)N[C@H]1CC[C@@H](Nc2nc(N(C)C)c3ccccc3n2)CC1 [compound 114, N-(cis-4-{[4-(dimethylamino)quinazolin-2-yl]amino}cyclohexyl)-N′-(2-propylphenyl)urea]
50 to 200 nM	CCOc1ccc(NC(=O)N[C@H]2CC[C@@H](Nc3nc(N(C)C)c4ccccc4n3)CC2)cc1 [compound 150, N-(cis-4-{[4-(dimethylamino)quinazolin-2-yl]amino}cyclohexyl)-N′-(4-ethoxyphenyl)urea]

Same assay, conditions: class by percent of control at 10^−7 M or by IC50; read-out: class

IC50	Compound
< 50 nM	CN(C)c1nc(N[C@H]2CC[C@@H](C(=O)NCc3cccc(C(F)(F)F)c3)CC2)nc2cc(F)c(F)cc12 [Example 998, cis-4-{[4-(dimethylamino)-6,7-difluoroquinazolin-2-yl]amino}-N-[3-(trifluoromethyl)benzyl]cyclohexanecarboxamide]
50 to 200 nM	CN(C)c1nc(N[C@H]2CC[C@@H](NC(=O)c3ccc(Oc4ccc(F)c(Cl)c4)nc3)CC2)nc2ccccc12 [Example 1070, 6-(3-chloro-4-fluorophenoxy)-N-(cis-4-{[4-(dimethylamino)quinazolin-2-yl]amino}cyclohexyl)nicotinamide]
> 200 nM	CN(C)c1nc(N[C@H]2CC[C@@H](NC(=O)Nc3c(Cl)cccc3Cl)CC2)nc2ccccc12 [Example 1012, N-(2,6-dichlorophenyl)-N′-(cis-4-{[4-(dimethylamino)quinazolin-2-yl]amino}cyclohexyl)urea]
50 to 200 nM	CN(C)c1nc(N[C@H]2CC[C@@H](NC(=O)C(O)c3ccc(Cl)cc3)CC2)nc2ccccc12 (relative stereo) [Example 1106, 2-(4-chlorophenyl)-N-(cis-4-{[4-(dimethylamino)quinazolin-2-yl]amino}cyclohexyl)-2-hydroxyacetamide]
> 200 nM	CN(C)c1nc(N[C@H]2CC[C@@H](NCc3ccc(Br)cc3OC(F)(F)F)C2)nc2ccccc12 [Example 1048, N2-((1S,3R)-3-{[4-bromo-2-(trifluoromethoxy)benzyl]-amino}cyclopentyl)-N4,N4-dimethylquinazoline-2,4-diamine]
